Earlier results as cited in patent US7964202B2, “Method for treatment of common acne” (Galderma Research & Development, S.N.C., priority 2001, dated 2011).
Read-outs that look alike come from different tables or passages of the source.

How the values were obtained:
[1] = for degradation time: 40° C.
[2] = in presence of benzoyl peroxide formulation

retinoid degraded ([2]; 24 hours) | retinoid degraded ([2]; 2 hours) [%] | SMILES | Benzoyl peroxide solubility (solvent PEG 400) [mg/g] | Benzoyl peroxide solubility (solvent ethanol) [mg/g] | Benzoyl peroxide solubility (solvent glycerol) [mg/g] | Benzoyl peroxide solubility (solvent propylene glycol) [mg/g] | Benzoyl peroxide solubility (solvent propylene glycol/water (75:25)) [mg/g] | Benzoyl peroxide solubility (solvent water) [mg/g] | degradation time ([1]; in solution in PEG 400 (0.5 mg/g)) [days] | degradation time ([1]; in solution in ethanol) [days] | degradation time ([1]; in solution in propylene glycol) [days] | degradation in suspension (dispersed form) ([1]; in water and propylene glycol, storage for 90 days)
 |  | O=C(OOC(=O)c1ccccc1)c1ccccc1 [Benzoyl peroxide] | 39.6 | 17.9 | 0.15 | 2.95 | 0.36 | 0.000155 | 1.4 | 29 | 53 | not degraded
no degradation |  | COc1ccc(-c2ccc3cc(C(=O)O)ccc3c2)cc1C12CC3CC(CC(C3)C1)C2 [adapalene] |  |  |  |  |  |  |  |  |  | 
95% | 50 | CC1=C(/C=C/C(C)=C/C=C/C(C)=C/C(=O)O)C(C)(C)CCC1 [tretinoin] |  |  |  |  |  |  |  |  |  | 
